CCOc1ccc(C2NC(=O)NC=C2C(=O)c2cc(OC)c(OC)c(OC)c2)cc1 (stereo not given)
Details	solubility (mole fraction)
in PEG-400, 298.15 K	0.00513
in PEG-400, 303.15 K	0.00678
in PEG-400, 308.15 K	0.0083
in PEG-400, 313.15 K	0.0104
in PEG-400, 318.15 K	0.0122

in water
Details	solubility (mole fraction)
298.15 K	8.04e-06
303.15 K	1.11e-05
308.15 K	1.52e-05
313.15 K	2.04e-05
318.15 K	2.57e-05

From BigSolDB 2.1
